Source: patent US20080039422A1, “Vitamin B12-Containing Compositions and Methods of Use” (Transition Therapeutics Inc., priority 2004, published 2008)
“And” between values parts separate entries of the source, which are not always exact repeats. Equal values may be shown once.

What was measured:
[1] = reported, cited from earlier work
[2] = Solubility study (saturated solubility of CN-Cbl, 25°C, 16 hours, UV); assay type: physicochemical
Description: During the solubility study the following were investigated: • cosolvents (mixtures of ethanol and propylene glycol) • in-situ salt formers • surfactants • pH effects • in-situ salt formers and cosolvents Solubility Study Method
Results of CN-Cbl Solubility in Water and Determination of Equilibrium Time

[3] = Ref. FD4068 29A, buffer Sodium citrate, citric acid, Initial pH 2.64
[4] = Ref. FD4068 30A, buffer Sodium citrate, citric acid, Initial pH 4.75
[5] = Ref. FD4068 30B, buffer Disodium hydrogen phosphate, sodium dihydrogen phosphate, Initial pH 7.03
[6] = Ref. FD4068 31A, buffer Diethanolamine, hydrochloric acid, Initial pH 8.93

## cyanocobalamin [CN-Cbl]
[1]; anhydrous form
  hygroscopicity: very hygroscopic
[1]; 1:80 (Merck Index 1996)
  solubility in water: ~12.5 mg/mL
[2]; 0.1 M Choline (12.12 mg/ml), Initial pH 12.54
  Saturated Solubility: 29.5 mg/mL
[2]; 0.1 M Diethanolamine (10.51 mg/ml), Initial pH 10.80
  Saturated Solubility: 18.1 mg/mL
[2]; 0.1 M L-arginine (17.42 mg/ml), Initial pH 10.88
  Saturated Solubility: 18.2 mg/mL
[2]; 0.1 M L-lysine (16.42 mg/ml), Initial pH 9.60
  Saturated Solubility: 16.3 mg/mL
[2]; 0.1 M Meglumine (19.52 mg/ml), Initial pH 11.00
  Saturated Solubility: 18.0 mg/mL
[2]; 0.1 M Triethanolamine (14.92 mg/ml), Initial pH 10.13
  Saturated Solubility: 18.6 mg/mL
[2]; 0.1 M Triethylamine (10.12 mg/ml), Initial pH 11.64
  Saturated Solubility: 24.9 mg/mL
[2]; Ref. FD4068 14A, Propylene glycol 30% v/v, Ethanol 5% v/v
  Saturated Solubility: 36.6 mg/mL
[2]; Ref. FD4068 15A, Propylene glycol 32% v/v, Ethanol 5% v/v
  Saturated Solubility: 39.8 mg/mL
[2]; Ref. FD4068 15B, Propylene glycol 34% v/v, Ethanol 5% v/v
  Saturated Solubility: 39.1 mg/mL
[2]; Ref. FD4068 15C, Propylene glycol 36% v/v, Ethanol 5% v/v
  Saturated Solubility: 41.8 mg/mL
[2]; Ref. FD4068 16A, Propylene glycol 38% v/v, Ethanol 5% v/v
  Saturated Solubility: 45.5 mg/mL
[2]; Ref. FD4068 16B, Propylene glycol 40% v/v, Ethanol 5% v/v
  Saturated Solubility: 48.1 mg/mL
[2]; Ref. FD4068 16C, Propylene glycol 30% v/v, Ethanol 10% v/v
  Saturated Solubility: 45.6 mg/mL
[2]; Ref. FD4068 16D, Propylene glycol 32% v/v, Ethanol 10% v/v
  Saturated Solubility: 45.8 mg/mL
[2]; Ref. FD4068 17A, Propylene glycol 34% v/v, Ethanol 10% v/v
  Saturated Solubility: 47.8 mg/mL
[2]; Ref. FD4068 17B, Propylene glycol 36% v/v, Ethanol 10% v/v
  Saturated Solubility: 51.0 mg/mL
[2]; Ref. FD4068 17C, Propylene glycol 38% v/v, Ethanol 10% v/v
  Saturated Solubility: 52.2 mg/mL
[2]; Ref. FD4068 17D, Propylene glycol 40% v/v, Ethanol 10% v/v (no surfactant)
  Saturated Solubility: 53.8 mg/mL
[2]; Ref. FD4068 26A, 5% w/v Polysorbate 80, 40% v/v propylene glycol, 10% v/v ethanol
  Saturated Solubility: 49.0 mg/mL
[2]; Ref. FD4068 26B, 5% w/v Polysorbate 20, 40% v/v propylene glycol, 10% v/v ethanol
  Saturated Solubility: 46.5 mg/mL
[2]; Ref. FD4068 26C, 5% w/v Paloxamer 188, 40% v/v propylene glycol, 10% v/v ethanol
  Saturated Solubility: 45.1 mg/mL
[2]; Ref. FD4068 27A, 5% w/v Cremophor RH40, 40% v/v propylene glycol, 10% v/v ethanol
  Saturated Solubility: 47.1 mg/mL
[2]; [3]
  Saturated Solubility: 15.3 mg/mL
  pH of CN-Cbl Solution: 2.89
[2]; [4]
  Saturated Solubility: 15.0 mg/mL
  pH of CN-Cbl Solution: 4.83
[2]; [5]
  Saturated Solubility: 13.6 mg/mL
  pH of CN-Cbl Solution: 7.02
[2]; [6]
  Saturated Solubility: 17.5 mg/mL
  pH of CN-Cbl Solution: 8.80
[2]; Ref. FD4068 33, 0.1 M Choline, 40% v/v propylene glycol, 10% v/v ethanol
  pH of CN-Cbl Solution: 12.61
[2]; Ref. FD4068 33, Choline 0.100 M (12.12 mg/ml), 40% v/v propylene glycol, 10% v/v ethanol
  Saturated Solubility: 91.8 mg/ml and 0.068 M
[2]; Ref. FD4068 33, Choline 0.100 M, 40% v/v propylene glycol, 10% v/v ethanol, Initial pH 12.68
  pH of CN-Cbl Solultion: 12.6 and 12.61
[2]; Ref. FD4068 34, 0.1 M Triethylamine, 40% v/v propylene glycol, 10% v/v ethanol
  pH of CN-Cbl Solution: 10.97
[2]; Ref. FD4068 38A, 10% v/v Ethanol, 40% v/v Propylene Glycol, 0.1 M Choline, pH adjusted with hydrochloric acid, Initial pH 8.58
  Saturated Solubility: 60.3 mg/mL
[2]; Ref. FD4068 38A, 10% v/v Ethanol, 40% v/v Propylene Glycol, 0.1 M Choline, Initial pH 8.58
  pH of CN-Cbl Solution: 8.10
[2]; Ref. FD4068 38B, 10% v/v Ethanol, 40% v/v Propylene Glycol, 0.1 M Choline, pH adjusted with hydrochloric acid, Initial pH 7.85
  Saturated Solubility: 59.4 mg/mL
[2]; Ref. FD4068 38B, 10% v/v Ethanol, 40% v/v Propylene Glycol, 0.1 M Choline, Initial pH 7.85
  pH of CN-Cbl Solution: 7.70
[2]; Ref. FD4068 39B, 10% v/v Ethanol, 40% v/v Propylene Glycol, 0.1 M Choline, pH adjusted with hydrochloric acid, Initial pH 8.99
  Saturated Solubility: 63.1 mg/mL
